Here are results for 17 compounds from ChEMBL document CHEMBL1926533, “Synthesis and biological evaluation of cyclopentane-linked alkyl phosphocholines as potential anticancer agents that act by inhibiting Akt phosphorylation” (Eur J Med Chem, 2012).

Experiment [1] deals with A549. Description: Inhibition of Akt phosphorylation in insulin-stimulated human A549 cells at 10 uM treated 2 hrs before insulin stimulation measured after 30 mins by ELISA. It is filed as cell-based. Background: An ELISA detects its analyte on a solid surface through an enzyme-linked reagent.
Experiment [2] in a line: Inhibition of Akt phosphorylation in insulin-stimulated human A549 cells treated 2 hrs before insulin stimulation measured after 30 mins by ELISA. The format is cell-based.
Experiment [3] relates to A549. As to the kind of experiment: Cytotoxicity against human A549 cells after 24 hrs by FACS analysis. The format is functional, cell-based. The settings on record: A549, 24 h.
The test system of a further experiment is MCF7. Description: Cytotoxicity against human MCF7 cells after 24 hrs by FACS analysis. It is filed as functional, cell-based. The following applies: MCF7, 24 h.
A short description of experiment [4]: Cytotoxicity against human KATO III cells after 24 hrs by FACS analysis. The format is functional, cell-based, KATO III cell. (Flow cytometry measures light scatter and fluorescence of single cells or particles in a stream.)
Experiment [5] relates to A549. Description: Ratio of erufosine IC50 to compound IC50 for inhibition of Akt phosphorylation in insulin-stimulated human A549 cells. It is filed as cell-based.
Experiment [6] relates to A549. As to the kind of experiment: Ratio of miltefosine IC50 to compound IC50 for inhibition of Akt phosphorylation in insulin-stimulated human A549 cells. The format is cell-based.
For experiment [7], the system named is A549. Description: Ratio of perifosine IC50 to compound IC50 for inhibition of Akt phosphorylation in insulin-stimulated human A549 cells. The format is cell-based.

pIC50: −log10 of the molar value.

With `CCCCCCCCCCCCCOC[C@@H]1CCC[C@H]1OP(=O)([O-])OCC[N+](C)(C)C` (racemic), in the experiment with A549 [1], the inhibition (commonly the drop in the measured response relative to a control, in per cent) is 65.4%. The pIC50 (commonly the negative decadic logarithm of the IC50, by convention in mol/L) in experiment [2] was 5.18; in the experiment on A549 [3], 5.21; in the experiment on MCF7, 5.11; in experiment [4], 4.99.
In the experiment with A549 [1], `CCCCCCCCCCCCCCCCCCOP(=O)([O-])OC1CC[N+](C)(C)CC1` [PERIFOSINE] came in with an inhibition of 68%. The pIC50 in experiment [2] is 5.28; in the experiment on A549 [3], 5.15; with MCF7, 4.88; in experiment [4], 4.89.
Consider `CCCCCCCCCCCCCCCCCCO[C@H]1CCC[C@H]1COP(=O)([O-])OCC[N+](C)(C)C` (racemic), for which the inhibition in the experiment with A549 [1] came to 35.2%. The values for the negative logarithm of the IC50 (pIC50) (in the experiment with A549 [3]; in the experiment with MCF7; in experiment [4]) were 4.75, 4.88 and 5.04, respectively.
With `CCCCCCCCCCCCCCCCCCCCOC[C@@H]1CCC[C@H]1OP(=O)([O-])OCC[N+](C)(C)C` (racemic), the inhibition in the experiment on A549 [1] was found to be 74.4%. For the same compound, the pIC50 in experiment [2] was 5.44; in the experiment with A549 [3], 5.19; with MCF7, 4.97; in experiment [4] it was 5.06. For the same compound, the Ratio IC50 with A549 [5] came out at 3; in the experiment on A549 [6] it was 3; in the experiment on A549 [7], 2.
`CCCCCCCCCCCCCCCCCCCCO[C@H]1CCC[C@H]1COP(=O)([O-])OCC[N+](C)(C)C` (racemic): the inhibition in the experiment with A549 [1] stood at 54.4%. The negative logarithm of the IC50 (pIC50) in experiment [2] is 4.79; with A549 [3], 5.01; in the experiment with MCF7 it was 4.79; in experiment [4], 5.06.
As for `CCCCCCCCCCCCO[C@@H]1CCC[C@H]1COP(=O)([O-])OCC[N+](C)(C)C` (racemic), the inhibition with A549 [1] was 31.7%. For the same compound, the pIC50 was 4.83 in the experiment on MCF7 and 4.98 in experiment [4].
Consider `CCCCCCCCCCCCCCCCCCCCCCO[C@H]1CCC[C@H]1COP(=O)([O-])OCC[N+](C)(C)C` (racemic), for which the inhibition in the experiment on A549 [1] came out at 36.2%. Besides, the pIC50 was 4.63 in the experiment with A549 [3], 4.89 in the experiment with MCF7 and 5.07 in experiment [4].
`CCCCCCCCCCCCCCCCOP(=O)([O-])OCC[N+](C)(C)C` [MILTEFOSINE]: the inhibition with A549 [1] is 56.3%. The negative-log IC50 (pIC50) is 5.02 in experiment [2], 5.01 in the experiment on A549 [3], 4.94 in the experiment with MCF7 and 4.92 in experiment [4].
For `CCCCCCCCCCCCCO[C@@H]1CCC[C@H]1COP(=O)([O-])OCC[N+](C)(C)C` (racemic), the inhibition in the experiment with A549 [1] turned out to be 40.8%. In addition, the pIC50 with A549 [3] was 5.03; in the experiment with MCF7, 4.75; in experiment [4], 5.00.
The corresponding values for `CCCCCCCCCCCCCCCCCCO[C@@H]1CCC[C@H]1COP(=O)([O-])OCC[N+](C)(C)C` (racemic) are 32.4%, 4.71, 4.80 and 5.09.
In turn, `CCCCCCCCCCCCCCCCCCCCO[C@@H]1CCC[C@H]1COP(=O)([O-])OCC[N+](C)(C)C` (racemic) returned an inhibition in the experiment with A549 [1] of 58.9%. The negative-log IC50 (pIC50) is 5.04 in experiment [2], 5.01 in the experiment on A549 [3], 4.81 in the experiment on MCF7 and 5.11 in experiment [4].
`CCCCCCCCCCCCO[C@H]1CCC[C@H]1COP(=O)([O-])OCC[N+](C)(C)C` (racemic) gave an inhibition with A549 [1] of 30.4%. Besides, the pIC50 in the experiment with A549 [3] is 4.58; in the experiment with MCF7, 4.62; in experiment [4], 5.13.
On to `CCCCCCCCCCCCCO[C@H]1CCC[C@H]1COP(=O)([O-])OCC[N+](C)(C)C` (racemic), for which the inhibition with A549 [1] was 44.7%. The negative-log IC50 (pIC50) with A549 [3] is 4.99; in the experiment on MCF7, 4.97; in experiment [4], 4.92.
In the experiment with A549 [1], `CCCCCCCCCCCCCCCCCCCCCCO[C@@H]1CCC[C@H]1COP(=O)([O-])OCC[N+](C)(C)C` (racemic) displayed an inhibition of 68%. Moreover, the negative-log IC50 (pIC50) in experiment [2] was 5.19; in the experiment with A549 [3], 4.95; with MCF7, 4.71; in experiment [4] it was 4.75.
The corresponding values for `CCCCCCCCCCCCCCCCCCCCCCOC[C@@H]1CCC[C@H]1OP(=O)([O-])OCC[N+](C)(C)C` (racemic) are 58.2%, 5.00, 4.80, 4.79 and 4.92.
`CCCCCCCCCCCCOC[C@@H]1CCC[C@H]1OP(=O)([O-])OCC[N+](C)(C)C` (racemic) yielded an inhibition in the experiment with A549 [1] of 36.2%. Further, the pIC50 was 4.96 with A549 [3], 4.93 in the experiment with MCF7 and 4.97 in experiment [4].
In the experiment on A549 [1], `CCCCCCCCCCCCCCCCCCOC[C@@H]1CCC[C@H]1OP(=O)([O-])OCC[N+](C)(C)C` (racemic) showed an inhibition of 63.4%. Moreover, the pIC50 in experiment [2] was 4.99; in the experiment with A549 [3], 4.97; in the experiment with MCF7, 4.86; in experiment [4] it was 4.98.
